{"source": "PubChem BioAssay AID1845194", "about": "(Molecular Pharmacology Branch, DTP, NCI, 2023);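 also: spheroids exposed to compound for 7 days before viability readout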;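 as to viability, T/C: luminescent signal taken as surrogate of viable cell content; 100% = DMSO vehicle control viability and lower means growth inhibition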", "test_system": "287954-098-R-J1 tumor spheroid viability", "assay": "Anticancer human tumor 287954-098-R-J1 patient-derived Ewing sarcoma cell line growth inhibition", "conditions": "spheroids with HUVEC and MSC; for IC50: curve of first compound; for viability, T/C: stronger effect = lower value", "excerpt": "Multicellular complex tumor spheroid response to DNA repair inhibitors in combination with DNA-damaging drugs\nThis study explores the anticancer activities of DNA-damaging drugs and inhibitors of DNA damage repair, both as single agents and in combinations. Complex tumor spheroids comprised of malignant cells, endothelial cells and mesenchymal stem cells served as an in vitro model for human solid tumors. This model system incorporates physiologically relevant features and patient-derived or established malignant cell lines with clinically relevant genetic alterations from many tumor types. Twenty-six patient-derived or established malignant cell lines were evaluated representing sarcoma, melanoma, small cell lung cancer (SCLC), non-small cell lung cancer (NSCLC), as well as bladder, ovarian and pancreatic cancers. The concentration ranges selected for each drug and investigational agent were based upon clinically achievable concentrations if the clinical Cmax of the agent was known.\nCompounds. The drugs and compounds olaparib (NSC753686), talazoparib (NSC767125), berzosertib (NSC777718), elimusertib (NSC800525), nedisertib (NSC802822), VX-984 (NSC792969), AZD-1390 (NSC803789), temozolomide (NSC362856), topotecan (NSC609699), trabectedin (NSC813783), staurosporine (NSC755774), and gemcitabine (NSC613327) were obtained from the National Cancer Institute (NCI) Developmental Therapeutics Program Chemical Repository. The FDA-approved anticancer drug set is available from the Developmental Therapeutics Program at https://dtp.cancer.gov/organization/dscb/obtaining/available_plates.htm. […] The stock solutions were prepared in dimethyl sulfoxide (DMSO, Sigma-Aldrich, St. Louis, MO, cat. D2650) at 400-fold the tested concentration and stored at -70 degrees C. Prior to their use, the stock solutions were diluted in fresh medium and the final DMSO concentration in the assay was 0.25% (v/v). All drugs and investigational agents were tested over a range starting from a high concentration at or near the clinical Cmax and decreasing in half-log increments. If the clinical Cmax for an agent had not been determined, the highest concentration tested was 10 microM.\nCell Lines. The patient-derived cancer cell (PDC) lines: 156681-154-R-J1-PDC, 283228-195-R-J1-PDC, 287954-098-R-J1-PDC, 292921-168-R-J2-PDC, 349418-098-R-PDC, 425362-245-T-J1-PDC, 556581-035-R-J1-PDC, and BL0293-F563-PDC were received from the NCI Patient-Derived Models Repository (PDMR, https://pdmr.cancer.gov). The established cell lines HS-SY-2 (RRID:CVCL_8719), MPNST, and SYO-1 (RRID:CVCL_7146) were obtained from the Sloan Kettering Institute. The alveolar soft parts sarcoma cell line ASPS-1 (RRID:CVCL_S738) was established at the NCI and grown from internal seed stocks. The following established cell lines were purchased from the American Type Culture Collection (ATCC, Manassas, VA): G-401 (ATCC, cat. CRL-1441, RRID:CVCL_0270), SW982 (ATCC, cat. HTB-93, RRID:CVCL_1734), VA-ES-BJ (ATCC, cat. CRL-2138, RRID:CVCL_1785), NCI-H719 (ATCC, cat. CRL-5837, RRID:CVCL_1582), NCI-H196 (ATCC, cat. CRL-5823, RRID:CVCL_1509), NCI-H841 (ATCC, cat. CRL-5845, RRID:CVCL_1595), NCI-H1618 (ATCC, cat. CRL-5879, RRID:CVCL_1480), NCI-H1876 (ATCC, cat. CRL-5902, RRID:CVCL_1503), DMS 114 (ATCC, cat. CRL-2066; RRID:CVCL_1174), NCI-H211 (ATCC, cat. CRL-5824; RRID:CVCL_1529), and SW 1271 (ATCC, cat. CRL-2177, RRID:CVCL_1716). The small cell lung cancer cell line COR-L88 was purchased from Sigma-Aldrich (cat. 92031917-1VL, RRID:CVCL_1141). The non-small cell lung cancer cell lines NCI-H226 (RRID:CVCL_1544) and NCI-H322M (RRID:CVCL_1557) were established at the NCI and grown from internal seed stocks. Pooled donor human umbilical vein endothelial cells (HUVEC, Lonza, cat. CC-2519) and human mesenchymal stem cells (hMSC, Lonza, cat. PT-2501) were purchased from Lonza (Walkersville, MD).\nCell Culture. All cells were maintained in an incubator at 37 degrees C and 5% CO2 with 95% humidity. […]"}
{"smiles": "COc1ccc([C@@H](O)c2cc(-c3ncnc4cc(N5CCOCC5)ccc34)c(F)cc2Cl)nn1", "note": "+ COc1cc2c(cc1O)CCNC21CSC2c3c(OC(C)=O)c(C)c4c(c3C(COC1=O)N1C(O)C3Cc5cc(C)c(OC)c(O)c5C(C21)N3C)OCO4", "values": [{"measurement": "IC50", "setting": "second compound 30 pM", "value": "> 10000", "unit": "nM"}, {"measurement": "IC50", "setting": "second compound 94.9 pM", "value": "> 10000", "unit": "nM"}, {"measurement": "IC50", "setting": "second compound 0.0003 µM", "value": 587, "unit": "nM"}, {"measurement": "IC50", "setting": "second compound 0.000949 µM", "value": "< 31.6", "unit": "nM"}, {"measurement": "IC50", "setting": "second compound 0.003 µM", "value": "< 31.6", "unit": "nM"}, {"measurement": "viability, T/C", "setting": "second compound 30 pM, first compound 0.0316 µM", "value": 101, "unit": "%"}, {"measurement": "viability, T/C", "setting": "second compound 30 pM, first compound 0.1 µM", "value": 99.2, "unit": "%"}, {"measurement": "viability, T/C", "setting": "second compound 30 pM, first compound 0.316 µM", "value": 100, "unit": "%"}, {"measurement": "viability, T/C", "setting": "second compound 30 pM, first compound 1 µM", "value": 109, "unit": "%"}, {"measurement": "viability, T/C", "setting": "second compound 30 pM, first compound 3.16 µM", "value": 104, "unit": "%"}, {"measurement": "viability, T/C", "setting": "second compound 30 pM, first compound 10 µM", "value": 94.3, "unit": "%"}, {"measurement": "viability, T/C", "setting": "second compound 94.9 pM, first compound 0.0316 µM", "value": 109, "unit": "%"}, {"measurement": "viability, T/C", "setting": "second compound 94.9 pM, first compound 0.1 µM", "value": 112, "unit": "%"}, {"measurement": "viability, T/C", "setting": "second compound 94.9 pM, first compound 0.316 µM", "value": 108, "unit": "%"}, {"measurement": "viability, T/C", "setting": "second compound 94.9 pM, first compound 1 µM", "value": 109, "unit": "%"}, {"measurement": "viability, T/C", "setting": "second compound 94.9 pM, first compound 3.16 µM", "value": 108, "unit": "%"}, {"measurement": "viability, T/C", "setting": "second compound 94.9 pM, first compound 10 µM", "value": 72.8, "unit": "%"}, {"measurement": "viability, T/C", "setting": "second compound 0.0003 µM, first compound 0.0316 µM", "value": 109, "unit": "%"}, {"measurement": "viability, T/C", "setting": "second compound 0.0003 µM, first compound 0.1 µM", "value": 109, "unit": "%"}, {"measurement": "viability, T/C", "setting": "second compound 0.0003 µM, first compound 0.316 µM", "value": 103, "unit": "%"}, {"measurement": "viability, T/C", "setting": "second compound 0.0003 µM, first compound 1 µM", "value": 4.2, "unit": "%"}, {"measurement": "viability, T/C", "setting": "second compound 0.0003 µM, first compound 3.16 µM", "value": 0.48, "unit": "%"}, {"measurement": "viability, T/C", "setting": "second compound 0.0003 µM, first compound 10 µM", "value": 1.07, "unit": "%"}, {"measurement": "viability, T/C", "setting": "second compound 0.000949 µM, first compound 0.0316 µM", "value": 0.54, "unit": "%"}, {"measurement": "viability, T/C", "setting": "second compound 0.000949 µM, first compound 0.1 µM", "value": 0.53, "unit": "%"}, {"measurement": "viability, T/C", "setting": "second compound 0.000949 µM, first compound 0.316 µM", "value": 0.35, "unit": "%"}, {"measurement": "viability, T/C", "setting": "second compound 0.000949 µM, first compound 1 µM", "value": 0.22, "unit": "%"}, {"measurement": "viability, T/C", "setting": "second compound 0.000949 µM, first compound 3.16 µM", "value": 0.12, "unit": "%"}, {"measurement": "viability, T/C", "setting": "second compound 0.000949 µM, first compound 10 µM", "value": 0.32, "unit": "%"}, {"measurement": "viability, T/C", "setting": "second compound 0.003 µM, first compound 0.0316 µM", "value": 0.43, "unit": "%"}, {"measurement": "viability, T/C", "setting": "second compound 0.003 µM, first compound 0.1 µM", "value": 0.47, "unit": "%"}, {"measurement": "viability, T/C", "setting": "second compound 0.003 µM, first compound 0.316 µM", "value": 0.36, "unit": "%"}, {"measurement": "viability, T/C", "setting": "second compound 0.003 µM, first compound 1 µM", "value": 0.33, "unit": "%"}, {"measurement": "viability, T/C", "setting": "second compound 0.003 µM, first compound 3.16 µM", "value": 0.32, "unit": "%"}, {"measurement": "viability, T/C", "setting": "second compound 0.003 µM, first compound 10 µM", "value": 0.48, "unit": "%"}]}
